Patent US20250073680A1, “METHOD OF REGENERATING BIS(IMINOGUANIDINE) CARBON DIOXIDE SORBENTS FROM CARBONATE OR BICARBONATE SALT THEREOF” (UT-Battelle, LLC, priority 2023, published 2025)
Entries after “also recorded” stand apart in the source; their conditions may differ.

Tests used:
[1] = Stability after steam stripping by NMR and XRD; assay type: physicochemical; conditions: 1H-NMR and XRD versus synthesized / conventionally regenerated sample
Experimental: Infrared sensors for CO2 concentration measurements in the inlet and outlet gas streams were used. For gas sample measurements, the exhaust gas passed through a water trap and hydrophobic filter (CM-0118) prior to reaching the sensor to avoid excess water. A total inorganic carbon analyzer containing an acidification module and a CO2 coulometer module was used to determine inorganic carbon content in solid samples. Air at 100 mL/min was used as a carrier gas, and calculations were based on sample weight. A 1 M Na2CO3 solution was used as a standard. Solid samples (40-60 mg) were weighed out into small Teflon cups, and the entire cup was transferred into a 15-mL sample flask. A volume of 5 mL of 2 M HCl acid was dispensed to acidify each sample. Solid samples were analyzed in duplicates. X-ray diffraction (XRD) measurements were conducted using an X-ray diffraction system equipped with a solid-state detector. For the XRD measurements, X-rays were generated at 45 kV/40 mA, and the X-ray beam wavelength was λ=1.5406 A (Cu Kα radiation). Nuclear magnetic resonance (NMR) measurements were performed to quantify solvent degradation after regeneration. The 1D spectra were recorded on a 400 MHz NMR spectrometer equipped with a 5 mm BBI or BBO probe. A residual solvent peak was used as an internal reference (DMSO-d6: 2.50 ppm). […]

[2] = total regeneration energy; cited from earlier work
[3] = Aqueous solubility of regenerated sorbent; assay type: physicochemical; conditions: free base

SMILES | chemical stability after direct steam regeneration [1] | regeneration energy [2] | aqueous solubility [3]
N=C(N)NN=CC=NNC(=N)N [GBIG, glyoxal-bis(iminoguanidine)] | no chemical degradation occurred |  | 
N=C(N)N/N=C/C=N/NC(=N)N [GBIG-C, GBIG carbonate] |  | 3.4 kJ/g-CO2 | 
CC(/C=N/NC(=N)N)=N\NC(=N)N [MGBIG, methylglyoxal-bis(iminoguanidine)] | no chemical degradation occurred |  | completely dissolved in water; also recorded: high aqueous solubility
CC(/C=N/NC(=N)N)=N\NC(=N)N [MGBIG-C, methylglyoxal-bis(iminoguanidine) (MGBIG) carbonate] |  | 7.0-10.2 kJ/g-CO2 | 
